Assay results: patent US20030176483A1, “Topical synergistic microbicide” (priority 2002, published 2003)

What was measured:
[1] = system: HSV-1 (strain F); assay: Inactivation of HSV-1 by pre-mixing with drug, plaque reduction assay; assay type: cell-based, herpes simplex virus; details: concentration 0.005%, pre-mixing for 1 h
Method: (§1) HSV strains G (HSV-2) and F (HSV-1) were used in the experiments. A HSV susceptible cell line, Vero cells (African green monkey kidney cell), was used in the virus yield reduction assays. The culture medium for Vero cells was 5% minimum essential medium (MEM; GIBCO/BRL) supplemented with 5% fetal bovine serum, 100 U/ml penicillin and 100 μg/ml streptomycin).
(§2) Confluent cells were washed with PBS and subsequently infected with HSV for 1 h at 37° C. After viral inoculum was removed, the infected cells were washed with PBS and overlaid with 0.5% methylcellulose in culture medium. Cells were incubated at 37° C. for 2 days for HSV-2 infection and 3 days for HSV-1. When plaque size was adequate, cells were fixed with 10% formalin for […]. Monolayers were subsequently stained with 0.5% crystal violet for 10 min, and dye was removed by washing with tap water.
(§3) All data were generated from duplicate or triplicate experiments. Effects of compounds at varying concentrations were expressed as % of control (the mean plaque counts in drug treated wells/the mean plaque counts in control wells).
(§4) HSV G and F strains were diluted to 200 pfu/ml with 5% MEM, respectively. […] Equal volumes of diluted virus and drugs were mixed and incubated at 37° C. water-bath for 1 h. One ml of the mixture was then used to infect confluent Vero cells in 6-well plates at 37° C. for 1 h. […]

[2] = system: HSV-2 (strain G); assay: Inactivation of HSV-2 by pre-mixing with drug, plaque reduction assay; assay type: cell-based, herpes simplex virus; details: concentration 0.005%, pre-mixing for 1 h
Method: as §1, §2, §3, §4

[3] = system: Vero cells; assay: Cytotoxicity, neutral red uptake assay; assay type: cell-based, African green monkey; details: after 2 days' incubation, data not shown
Method: Culture medium was removed from confluent Vero cells in 24-well plates. The cells were then washed once with PBS. […] Cells were incubated at 37° C. for 1 h, 6 h, 2 and 3 days. At each time point, the medium was removed and cells washed with PBS. 500 μl of 0.01% neutral red (in PBS) was added to each well, and the samples were incubated at 37° C. for 30 min. The dye was then removed and the cells washed×2 with 1 ml PBS per well. The dye was extracted by addition of 500 μl of 50% ethanol/1% glacial acetic acid in PBS to each well and incubated at room temperature for 15 min with gentle shaking at 120-150 rpm. 200 μl extracted dye from each well was put into 96-well plate and the absorbance at 550 nm was read on an ELISA reader.

[4] = system: HSV-2 thymidine kinase mutant Delta 333; assay: Inactivation of drug-resistant HSV-2 TK mutant, plaque reduction assay; assay type: cell-based, herpes simplex virus; details: 37° C. for 1 h, concentration not given
[5] = system: Vero cells; assay: Cell death seen in the HSV inactivation plaque assays; assay type: cell-based, African green monkey; details: concentration 0.005%
Method: HSV G and F strains were diluted to 200 pfu/ml with 5% MEM, respectively. […] Equal volumes of diluted virus and drugs were mixed and incubated at 37° C. water-bath for 1 h. One ml of the mixture was then used to infect confluent Vero cells in 6-well plates at 37° C. for 1 h. After infection, viral inoculum was removed and the cells washed with PBS. The cells were subsequently overlaid with 1.5 ml of 0.5% methylcellullose (diluted from 1% stock with 2×culture medium) for plaque assay.

CCCCCCCCCCCCOS(=O)(=O)[O-].[Na+] [SDS]
inactivation of HSV-1 [1]: effective | inactivation of HSV-2 [2]: effective | CC50 (cytotoxic concentration giving 50% of cell death) [3]: approximately 0.005% | inactivation of delta 333 [4]: capable of inactivating | cell death [5]: 50%
